This note sets out measurements from patent publication US10189842B2 (Agency for Science, Technology and Research, priority 2013, dated 2019).

A value given as a limit tells only on which side of the number the result lay.

For this test, the system named is HEK293-STF3A cells. The test is described as follows: STF3A assay (luciferase reporter). Type of test: cell-based, Human. Particulars: Homo sapiens, 24 h, 1 day of treatment. From the text: HEK293-STF cell line was modified from Human embryonic kidney cell line HEK293 transfected with the STF reporter. HEK293-STF3A cell line was further modified from HEK293-STF cell line to express Wnt3A. This cell line was used to identify compounds that regulate either early or late signaling components of the Wnt pathway. These two cell lines were obtained from David Virshup's laboratory, Duke-NUS. L-Wnt3A (ATCC, #CRL-2647) cell line was used for providing Wnt3A conditioned media. The three cell lines were grown in DMEM with 10% FBS incubated in 37° C. with 5% CO2.
2×10^4 HEK293-STF3A cells in 75 μl culture media were seeded in each well of white 96 well plates (Greiner #655098) and incubated overnight at 37° C. 25 μl serially diluted compound was added to the cells to give final concentration of 50 μM to 1.5 nM. After 1 day of treatment, 100 μl of Steady-Glo Luciferase Assay reagent (#E2520, Promega) was added to each well and incubated for 10 minutes at room temperature. Luminescence was measured using Tecan Safire2 plate reader.
Regarding `Cc1cncc(-c2ccc(NC(=O)CCC(=O)N3CCCn4nc(C)cc43)nc2)n1` [Compound 128, 4-(2-methyl-6,7-dihydropyrazolo[1,5-a]pyrimidin-4(5H)-yl)-N-(5-(6-methylpyrazin-2-yl)pyridin-2-yl)-4-oxobutanamide], the concentration for half-maximal inhibition (IC50) is < 100 nM.

With `Cc1cc2n(n1)CCCN2C(=O)CCC(=O)Nc1ccc(-c2ccccc2)cc1` [Compound 33, N-([1,1′-biphenyl]-4-yl)-4-(2-methyl-6,7-dihydropyrazolo[1,5-a]pyrimidin-4(5H)-yl)-4-oxobutanamide], the half-inhibitory concentration (IC50) was < 100 nM.

Regarding `Cc1cc2n(n1)CCCN2C(=O)CCC(=O)Nc1ccc(-c2cccnc2)nc1` [Compound 48, N-([2,3′-bipyridin]-5-yl)-4-(2-methyl-6,7-dihydropyrazolo[1,5-a]pyrimidin-4(5H)-yl)-4-oxobutanamide], the concentration for half-maximal inhibition (IC50) was < 100 nM.

For `Cc1cc2n(n1)CCCN2C(=O)CCC(=O)Nc1ccc(-c2ccc(F)cc2)nn1` [Compound 101, N-(6-(4-fluorophenyl)pyridazin-3-yl)-4-(2-methyl-6,7-dihydropyrazolo[1,5-a]pyrimidin-4(5H)-yl)-4-oxobutanamide], the IC50 was < 100 nM.

For the molecule `Cc1cc2n(n1)CCCN2C(=O)CCC(=O)Nc1ccc(-c2cncnc2)cc1` [Compound 39, 4-{2-methyl-5H,6H,7H-pyrazolo[1,5-a]pyrimidin-4-yl}-4-oxo-N-[4-(pyrimidin-5-yl)phenyl]butanamide], the IC50 was < 100 nM.

For `Cc1cc2n(n1)CCCN2C(=O)CCC(=O)Nc1ccc(-c2cccc(F)c2)nc1` [Compound 84, N-(6-(3-fluorophenyl)pyridin-3-yl)-4-(2-methyl-6,7-dihydropyrazolo[1,5-a]pyrimidin-4(5H)-yl)-4-oxobutanamide], the IC50 was < 100 nM.

`Cc1cc2n(n1)CCCN2C(=O)CCC(=O)Nc1ccc(-c2ccc(F)cc2)cn1` [Compound 90, N-(5-(4-fluorophenyl)pyridin-2-yl)-4-(2-methyl-6,7-dihydropyrazolo[1,5-a]pyrimidin-4(5H)-yl)-4-oxobutanamide]: the 50% inhibitory concentration (IC50) is < 100 nM.

On to `Cc1ccc(-c2cnc(NC(=O)CCC(=O)N3CCCn4nc(C)cc43)cn2)cn1` [Compound 127, 4-(2-methyl-6,7-dihydropyrazolo[1,5-a]pyrimidin-4(5H)-yl)-N-(5-(6-methylpyridin-3-yl)pyrazin-2-yl)-4-oxobutanamide], for which the IC50 was < 1000 nM.

`Cc1cc2n(n1)CCCN2C(=O)CCC(=O)Nc1cnc(-c2cccnc2)c(F)c1` [Compound 111, N-(3-fluoro-2,3′-bipyridin-5-yl)-4-(2-methyl-6,7-dihydropyrazolo[1,5-a]pyrimidin-4(5H)-yl)-4-oxobutanamide]: the IC50 was < 100 nM.

In the case of `Cc1cc2n(n1)CCCN2C(=O)CCC(=O)Nc1ccc(-c2ccccc2)cn1` [Compound 44, 4-(2-methyl-6,7-dihydropyrazolo[1,5-a]pyrimidin-4(5H)-yl)-4-oxo-N-(5-phenylpyridin-2-yl)butanamide], the IC50 is < 100 nM.

Consider `Cc1cc2n(n1)CCCN2C(=O)CCC(=O)Nc1ccc(-c2cncc(Cl)c2)nn1` [Compound 102, N-(6-(5-chloropyridin-3-yl)pyridazin-3-yl)-4-(2-methyl-6,7-dihydropyrazolo[1,5-a]pyrimidin-4(5H)-yl)-4-oxobutanamide], for which the half-maximal inhibitory concentration (IC50) was < 100 nM.

On to `Cc1cc2n(n1)CC(C)CN2C(=O)CCC(=O)Nc1ccc(-c2cncc(F)c2)nc1` (stereo not drawn) [Compound 162, 4-(2,6-dimethyl-6,7-dihydropyrazolo[1,5-a]pyrimidin-4(5H)-yl)-N-(5′-fluoro-[2,3′-bipyridin]-5-yl)-4-oxobutanamide], for which the 50% inhibitory concentration (IC50) is < 100 nM.

In the case of `Cc1cc2n(n1)CCCN2C(=O)CCC(=O)Nc1ccc(-c2cccc(Cl)c2)nc1` [Compound 83, N-(6-(3-chlorophenyl)pyridin-3-yl)-4-(2-methyl-6,7-dihydropyrazolo[1,5-a]pyrimidin-4(5H)-yl)-4-oxobutanamide], the IC50 was < 100 nM.

With `Cc1cc2n(n1)CCCN2C(=O)CCC(=O)NC1CCN(c2ccccc2)CC1` [Compound 81, 4-(2-methyl-6,7-dihydropyrazolo[1,5-a]pyrimidin-4(5H)-yl)-4-oxo-N-(1-phenylpiperidin-4-yl)butanamide], the IC50 is > 10000 nM.

In the case of `Cc1cc2n(n1)CCCN2C(=O)CCC(=O)Nc1cc(-c2cccc(F)c2)no1` [Compound 8, N-(3-(3-fluorophenyl)isoxazol-5-yl)-4-(2-methyl-6,7-dihydropyrazolo[1,5-a]pyrimidin-4(5H)-yl)-4-oxobutanamide], the IC50 is < 100 nM.

For the molecule `COc1cccc(-c2cc(NC(=O)CCC(=O)N3CCCn4nc(C)cc43)on2)c1` [Compound 10, N-[3-(3-methoxyphenyl)-1,2-oxazol-5-yl]-4-{2-methyl-5H,6H,7H-pyrazolo[1,5-a]pyrimidin-4-yl}-4-oxobutanamide], the IC50 was < 5000 nM.

`Cc1cc2n(n1)CCCN2C(=O)CCC(=O)Nc1ccc(-c2ccccn2)cn1` [Compound 41, N-([2,3′-bipyridin]-6′-yl)-4-(2-methyl-6,7-dihydropyrazolo[1,5-a]pyrimidin-4(5H)-yl)-4-oxobutanamide]: the IC50 was < 100 nM.

For the molecule `Cc1cc2n(n1)CCCN2C(=O)CCC(=O)NC1CCC(c2ccccc2)CC1` (stereo not drawn) [Compound 80, 4-(2-methyl-6,7-dihydropyrazolo[1,5-a]pyrimidin-4(5H)-yl)-4-oxo-N-(4-phenylcyclohexyl)butanamide], the half-inhibitory concentration (IC50) is > 10000 nM.

Consider `Cc1cc2n(n1)CCCN2C(=O)CCC(=O)Nc1cc(-c2ccc(Cl)cn2)no1` [Compound 17, N-(3-(5-chloropyridin-2-yl)isoxazol-5-yl)-4-(2-methyl-6,7-dihydropyrazolo[1,5-a]pyrimidin-4(5H)-yl)-4-oxobutanamide], for which the IC50 is > 10000 nM.

On to `Cc1cc2n(n1)CC(C)CN2C(=O)CCC(=O)Nc1ccc(-c2cccnc2)nn1` (stereo not drawn) [Compound 141, 4-(2,6-dimethyl-6,7-dihydropyrazolo[1,5-a]pyrimidin-4(5H)-yl)-4-oxo-N-(6-(pyridin-3-yl)pyridazin-3-yl)butanamide], for which the IC50 is < 100 nM.

With `Cc1cc2n(n1)CCCN2C(=O)CC(C)C(=O)Nc1ccc(-c2cccnc2)nn1` (stereo not drawn) [Compound 155], the IC50 is < 100 nM.

As to `Cc1cc2n(n1)CCCN2C(=O)CCC(=O)Nc1ncc(-c2ccccc2)cn1` [Compound 46, 4-{2-methyl-5H,6H,7H-pyrazolo[1,5-a]pyrimidin-4-yl}-4-oxo-N-(5-phenylpyrimidin-2-yl)butanamide], the IC50 is < 1000 nM.

Consider `Cc1cc2n(n1)CCCN2C(=O)CCC(=O)Nc1cc(-c2ccc(Cl)cc2)no1` [Compound 5, N-(3-(4-chlorophenyl)isoxazol-5-yl)-4-(2-methyl-6,7-dihydropyrazolo[1,5-a]pyrimidin-4(5H)-yl)-4-oxobutanamide], for which the IC50 was < 100 nM.

For the molecule `Cc1cc2n(n1)CCCN2C(=O)CCC(=O)Nc1cc(C)c(-c2cccnc2)nn1` [Compound 106, 4-(2-methyl-6,7-dihydropyrazolo[1,5-a]pyrimidin-4(5H)-yl)-N-(5-methyl-6-(pyridin-3-yl)pyridazin-3-yl)-4-oxobutanamide], the IC50 is < 5000 nM.

For `COc1ccc(-c2ccc(NC(=O)CCC(=O)N3CCCn4nc(C)cc43)cc2)cc1` [Compound 63, N-(4′-methoxy-[1,1′-biphenyl]-4-yl)-4-(2-methyl-6,7-dihydropyrazolo[1,5-a]pyrimidin-4(5H)-yl)-4-oxobutanamide], the IC50 was < 100 nM.

For the molecule `Cc1cc2n(n1)CC(C)CN2C(=O)CCC(=O)Nc1ccc(-c2ccc(F)cn2)cn1` (stereo not drawn) [Compound 164, 4-(2,6-dimethyl-6,7-dihydropyrazolo[1,5-a]pyrimidin-4(5H)-yl)-N-(5-fluoro-[2,3′-bipyridin]-6′-yl)-4-oxobutanamide], the IC50 was < 1000 nM.

With `Cc1cc2n(n1)CCCN2C(=O)CCC(=O)Nc1ccc(-c2cnccn2)cn1` [Compound 50, 4-(2-methyl-6,7-dihydropyrazolo[1,5-a]pyrimidin-4(5H)-yl)-4-oxo-N-(5-(pyrazin-2-yl)pyridin-2-yl)butanamide], the IC50 is < 100 nM.

Consider `Cc1cncc(-c2ccc(NC(=O)CCC(=O)N3CC(C)Cn4nc(C)cc43)nc2)n1` (stereo not drawn) [Compound 157, 4-(2,6-dimethyl-6,7-dihydropyrazolo[1,5-a]pyrimidin-4(5H)-yl)-N-(5-(6-methylpyrazin-2-yl)pyridin-2-yl)-4-oxobutanamide], for which the IC50 is < 100 nM.

Turning to `Cc1cc2n(n1)CCCN2CCCCNc1cc(-c2cccc(Cl)c2)no1` [Compound 131, 3-(3-chlorophenyl)-N-(4-(2-methyl-6,7-dihydropyrazolo[1,5-a]pyrimidin-4(5H)-yl)butyl)isoxazol-5-amine], the IC50 is > 10000 nM.

As for `O=C(CCC(=O)N1CCCn2nccc21)Nc1cc(-c2cccc(Cl)c2)no1` [Compound 133, N-(3-(3-chlorophenyl)isoxazol-5-yl)-4-(6,7-dihydropyrazolo[1,5-a]pyrimidin-4(5H)-yl)-4-oxobutanamide], the IC50 was > 10000 nM.

For `Cc1cc2n(n1)CCCN2C(=O)CCC(=O)Nc1ccc(-c2cncc(F)c2)nn1` [Compound 103, N-(6-(5-fluoropyridin-3-yl)pyridazin-3-yl)-4-(2-methyl-6,7-dihydropyrazolo[1,5-a]pyrimidin-4(5H)-yl)-4-oxobutanamide], the IC50 was < 100 nM.

Take `Cc1cc2n(n1)CCCN2C(=O)CCC(=O)Nc1ccc(-c2nccs2)cc1` [Compound 25]: the IC50 is < 100 nM.

In the case of `Cc1cc2n(n1)CCCN2C(=O)CCC(=O)Nc1cc(-c2ccccc2)no1` [Compound 2, 4-(2-methyl-6,7-dihydropyrazolo[1,5-a]pyrimidin-4(5H)-yl)-4-oxo-N-(3-phenylisoxazol-5-yl)butanamide], the concentration for half-maximal inhibition (IC50) was < 1000 nM.

One may read the IC50 as the concentration needed to halve the response being measured. A higher IC50 goes with lower potency.
